Assays:
[1] = molecular target: Human GLP-1 receptors (Homo sapiens, UniProt P43220); assay: GLP-1 receptor activation assay (CRE-luciferase reporter, CHO-K1)
[2] = molecular target: Human glucagon receptors (Homo sapiens, UniProt P47871); assay: Glucagon receptor activation assay (CRE-luciferase reporter, CHO-K1)
Description: Then, the resulting increased luciferase activity was evaluated as a measurement of the effect on each receptor activation.
After 3 hours of transfection, medium was exchanged to Alpha Minimal Essential Medium (α-MEM) comprising 10% fetal bovine serum (FBS). Next day, the medium was exchanged to α-MEM comprising the analog of the present invention and 0.1% bovine serum albumin (BSA). After 6 hours, dual luciferase assay reagent was added in the same amount as the medium in which the cells were submerged, and firefly luciferase and Renilla luciferase activities were continuously measured. Firefly luciferase activity values were corrected against Renilla luciferase activity to yield transfection efficiency.

[3] = Body weight loss efficacy by 5-day repeated injection vs Liraglutide and MEDI0382, obese mice (Exp. Ex. 10); assay type: in vivo, C57BL/6 mouse; conditions: 30 nmol/kg s.c. once a day x 4
Description: Male laboratory mice (C57BL/6 mouse) were given diet containing high fat. The mice with high-fat-diet-induced obesity were grouped by body weight before beginning the experiment. […] Body weight and food intake was measured once per day, at the same time each day.

Human glucagon receptors, sequence (P47871 26-477): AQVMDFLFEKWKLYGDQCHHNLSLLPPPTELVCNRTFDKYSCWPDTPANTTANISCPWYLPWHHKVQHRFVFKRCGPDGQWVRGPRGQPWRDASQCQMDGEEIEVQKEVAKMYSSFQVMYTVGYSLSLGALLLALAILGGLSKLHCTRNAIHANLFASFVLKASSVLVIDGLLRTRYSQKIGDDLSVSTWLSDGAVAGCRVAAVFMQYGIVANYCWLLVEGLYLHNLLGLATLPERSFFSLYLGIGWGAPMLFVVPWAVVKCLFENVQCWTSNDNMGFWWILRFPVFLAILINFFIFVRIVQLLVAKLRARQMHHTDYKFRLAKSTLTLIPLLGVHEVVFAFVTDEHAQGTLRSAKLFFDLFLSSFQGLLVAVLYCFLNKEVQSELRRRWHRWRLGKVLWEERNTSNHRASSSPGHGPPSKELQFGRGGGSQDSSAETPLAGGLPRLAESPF
Human GLP-1 receptors, sequence (P43220 24-463): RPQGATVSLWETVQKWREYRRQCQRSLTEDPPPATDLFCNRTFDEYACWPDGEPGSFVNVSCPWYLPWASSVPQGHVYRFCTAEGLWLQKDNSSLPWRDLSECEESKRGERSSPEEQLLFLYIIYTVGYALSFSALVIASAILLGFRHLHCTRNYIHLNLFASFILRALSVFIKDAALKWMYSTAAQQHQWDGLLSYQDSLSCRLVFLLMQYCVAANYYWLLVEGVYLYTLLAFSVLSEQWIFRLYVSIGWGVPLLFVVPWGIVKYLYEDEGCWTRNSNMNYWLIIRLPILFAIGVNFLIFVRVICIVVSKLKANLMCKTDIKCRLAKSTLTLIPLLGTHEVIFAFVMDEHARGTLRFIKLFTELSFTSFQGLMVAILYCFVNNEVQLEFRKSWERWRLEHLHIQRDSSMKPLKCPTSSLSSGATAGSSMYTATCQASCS

Compound | EC50 [1] | EC50 [2] | body weight loss from baseline [3]
CSCC[C@H](NC(=O)[C@H](CC(C)C)NC(=O)[C@H](Cc1c[nH]c2ccccc12)NC(=O)[C@H](CCC(N)=O)NC(=O)[C@@H](NC(=O)[C@H](Cc1ccccc1)NC(=O)[C@H](CCC(=O)O)NC(=O)[C@@H]1CCCCNC(=O)CC[C@H](NC(=O)[C@H](CC(=O)O)NC(=O)[C@H](CC(C)C)NC(=O)[C@H](Cc2ccc(O)cc2)NC(=O)[C@H](CCCCN)NC(=O)[C@H](CO)NC(=O)[C@H](Cc2ccc(O)cc2)NC(=O)[C@H](CC(=O)O)NC(=O)[C@H](CO)NC(=O)[C@@H](NC(=O)[C@H](Cc2ccccc2)NC(=O)[C@@H](NC(=O)CNC(=O)[C@H](CCC(N)=O)NC(=O)C(C)(C)NC(=O)[C@@H](N)Cc2c[nH]cn2)[C@@H](C)O)[C@@H](C)O)C(=O)N[C@@H](CCCCN)C(=O)N[C@@H](CCCNC(=N)N)C(=O)N[C@@H](C)C(=O)N1)C(C)C)C(=O)N[C@@H](CC(N)=O)C(=O)N[C@H](C(=O)N[C@@H](CCCCN)C(=O)N[C@@H](CS)C(=O)O)[C@@H](C)O [Compound 47, reference compound] | < 10 pM | 10 to 100 pM | 
CCCCCCCCCCCCCCCC(=O)N[C@@H](CCC(=O)NCCCC[C@H](NC(=O)[C@H](CC(=O)O)NC(=O)[C@H](CO)NC(=O)[C@@H](NC(=O)[C@H](Cc1ccccc1)NC(=O)[C@@H](NC(=O)CNC(=O)[C@H](CCC(N)=O)NC(=O)[C@H](CO)NC(=O)[C@@H](N)Cc1c[nH]cn1)[C@@H](C)O)[C@@H](C)O)C(=O)N[C@@H](CO)C(=O)N[C@@H](CCC(=O)O)C(=O)N[C@@H](Cc1ccc(O)cc1)C(=O)N[C@@H](CC(C)C)C(=O)N[C@@H](CC(=O)O)C(=O)N[C@@H](CO)C(=O)N[C@@H](CCC(=O)O)C(=O)N[C@@H](CCCNC(=N)N)C(=O)N[C@@H](C)C(=O)N[C@@H](CCCNC(=N)N)C(=O)N[C@@H](CC(=O)O)C(=O)N[C@@H](Cc1ccccc1)C(=O)N[C@H](C(=O)N[C@@H](C)C(=O)N[C@@H](Cc1c[nH]c2ccccc12)C(=O)N[C@@H](CC(C)C)C(=O)N[C@@H](CCC(=O)O)C(=O)N[C@@H](C)C(=O)NCC(=O)NCC(=O)O)C(C)C)C(=O)O [MEDI0382, reference compound] | < 10 pM | 10 to 100 pM | 8.0%
